In ChEMBL document CHEMBL5518248, “Design, Synthesis, and Biological Evaluation of Novel Arylomycins against Multidrug-Resistant Gram-Negative Bacteria” (J Med Chem, 2024):

Experiments:
Type in all cases: functional
Details in all cases: time 18-20 hrs
[1] = tested on: Acinetobacter baumannii; experiment: Antibacterial activity against Acinetobacter baumannii 17-2 assessed as inhibition of bacterial growth measured after 18 to 20 hrs by broth microdilution method
[2] = tested on: Escherichia coli; experiment: Antibacterial activity against Escherichia coli ATCC 35218 assessed as inhibition of bacterial growth measured after 18 to 20 hrs by broth microdilution method
[3] = tested on: Pseudomonas aeruginosa; experiment: Antibacterial activity against Pseudomonas aeruginosa 19-5 assessed as inhibition of bacterial growth measured after 18 to 20 hrs by broth microdilution method
[4] = tested on: Escherichia coli; experiment: Antibacterial activity against Escherichia coli 14-4 assessed as inhibition of bacterial growth measured after 18 to 20 hrs by broth microdilution method
[5] = tested on: Klebsiella pneumoniae; experiment: Antibacterial activity against Klebsiella pneumoniae 15-1 assessed as inhibition of bacterial growth measured after 18 to 20 hrs by broth microdilution method
[6] = tested on: Klebsiella pneumoniae; experiment: Antibacterial activity against Klebsiella pneumoniae 15-4 assessed as inhibition of bacterial growth measured after 18 to 20 hrs by broth microdilution method
[7] = tested on: Acinetobacter baumannii; experiment: Antibacterial activity against Acinetobacter baumannii 17-8 assessed as inhibition of bacterial growth measured after 18 to 20 hrs by broth microdilution method
[8] = tested on: Klebsiella pneumoniae; experiment: Antibacterial activity against Klebsiella pneumoniae 15-5 assessed as inhibition of bacterial growth measured after 18 to 20 hrs by broth microdilution method
[9] = tested on: Pseudomonas aeruginosa; experiment: Antibacterial activity against Pseudomonas aeruginosa 17-1 assessed as inhibition of bacterial growth measured after 18 to 20 hrs by broth microdilution method
[10] = tested on: Escherichia coli; experiment: Antibacterial activity against Escherichia coli 14-2 assessed as inhibition of bacterial growth measured after 18 to 20 hrs by broth microdilution method

Row | SMILES | MIC [1] [µg/mL] | MIC [2] [µg/mL] | MIC [3] [µg/mL] | MIC [4] [µg/mL] | MIC [5] [µg/mL] | MIC [6] [µg/mL] | MIC [7] [µg/mL] | MIC [8] [µg/mL] | MIC [9] [µg/mL] | MIC [10] [µg/mL]
1 | Cc1nc(-c2ccc(C(C)(C)C)cc2)ncc1C(=O)N[C@@H](CCN)C(=O)N(C)[C@@H]1C(=O)N[C@@H](C)C(=O)N[C@H](C(=O)NNCC#N)Cc2ccc(OCCN)c(c2)-c2cc1ccc2OCCN.Cl.Cl.Cl.Cl | 32 | 0.5 | > 64 | 0.5 | 2 | 2 | 8 | 1 | > 64 | 1
2 | Cc1nc(-c2ccc(C(C)(C)C)cc2)ncc1C(=O)N[C@@H](CCN)C(=O)N(C)[C@@H]1C(=O)N[C@@H](C)C(=O)N[C@H](C(=O)NCC=O)Cc2ccc(OCCN)c(c2)-c2cc1ccc2OCCN.Cl.Cl.Cl.Cl | 4 | ≤ 0.03 | 64 | 0.06 | ≤ 0.03 | 0.125 | 2 | ≤ 0.03 | > 64 | ≤ 0.03
3 | Cc1nc(-c2ccc(C(C)(C)C)cc2)ncc1C(=O)N[C@@H](CCN)C(=O)N(C)[C@@H]1C(=O)N[C@@H](C)C(=O)N[C@H](C(=O)NCC#N)c2ccc(OCCN)c(c2)-c2cc1ccc2OCCN.Cl.Cl.Cl.Cl | > 64 | 64 | 32 | 32 | 64 | > 64 |  | 64 | > 64 | 32
4 | Cc1nc(-c2ccc(C(C)(C)C)cc2)ncc1C(=O)N[C@@H](CCN)C(=O)N(C)[C@@H]1C(=O)N[C@@H](C)C(=O)N[C@H](C(=O)NN(C)CC#N)Cc2ccc(OCCN)c(c2)-c2cc1ccc2OCCN.Cl.Cl.Cl.Cl | > 64 | 4 | > 64 | 4 | 8 | 16 | 64 | 16 | > 64 | 16
5 | Cc1nc(-c2ccc(C(C)(C)C)cc2)ncc1C(=O)N[C@@H](CCN)C(=O)N(C)[C@@H]1C(=O)N[C@@H](C)C(=O)N[C@H](C(=O)NOCC#N)Cc2ccc(OCCN)c(c2)-c2cc1ccc2OCCN.Cl.Cl.Cl.Cl | 32 | 0.5 | > 64 | 0.5 | 0.5 | 2 |  | 1 | > 64 | 0.5
6 | Cc1nc(-c2ccc(C(C)(C)C)cc2)ncc1C(=O)N[C@@H](CCN)C(=O)N(C)[C@@H]1C(=O)NCCC(=O)N[C@H](C(=O)NCC#N)Cc2ccc(OCCN)c(c2)-c2cc1ccc2OCCN.Cl.Cl.Cl.Cl | > 64 | 16 | > 64 | 16 | 32 | 32 |  | 64 | > 64 | 16
7 | Cc1nc(-c2ccc(C(C)(C)C)cc2)ncc1C(=O)N[C@@H](CCN)C(=O)N(C)[C@@H]1C(=O)N[C@@H](C)C(=O)N[C@H](C(=O)NCS(=O)(=O)O)Cc2ccc(OCCN)c(c2)-c2cc1ccc2OCCN.Cl.Cl.Cl.Cl | > 64 | 16 | > 64 | 8 | 4 | 16 |  | 8 | > 64 | 32
8 | Cc1nc(-c2ccc(C(C)(C)C)cc2)ncc1C(=O)N[C@@H](CCN)C(=O)N(C)[C@H]1Cc2ccc(OCCN)c(c2)-c2cc(ccc2OCCN)[C@@H](C(=O)NCC#N)NC(=O)[C@H](C)NC1=O.Cl.Cl.Cl.Cl | > 64 | > 64 | > 64 | > 64 | > 64 | > 64 |  | > 64 | > 64 | > 64
9 | Cc1nc(-c2ccc(C(C)(C)C)cc2)ncc1C(=O)N[C@@H](CCN)C(=O)N(C)[C@@H]1C(=O)N[C@@H](C)C(=O)N[C@H](C(=O)NCC(=O)O)Cc2ccc(OCCN)c(c2)-c2cc1ccc2OCCN.Cl.Cl.Cl.Cl | 64 | 1 | > 64 | 1 | 1 | 2 |  | 1 | > 64 | 1

Next, values leading:

Row | MIC [1] [µg/mL] | MIC [2] [µg/mL] | MIC [3] [µg/mL] | MIC [4] [µg/mL] | MIC [5] [µg/mL] | MIC [6] [µg/mL] | MIC [7] [µg/mL] | MIC [8] [µg/mL] | MIC [9] [µg/mL] | MIC [10] [µg/mL] | SMILES
10 | > 64 | 32 | > 64 | 64 | > 64 | > 64 | > 64 | > 64 | > 64 | 64 | Cc1nc(-c2ccc(C(C)(C)C)cc2)ncc1C(=O)N[C@@H](CCN)C(=O)N(C)[C@@H]1C(=O)N[C@@H](C)C(=O)N[C@H](NC(=O)NCC#N)Cc2ccc(OCCN)c(c2)-c2cc1ccc2OCCN.O=C(O)C(F)(F)F.O=C(O)C(F)(F)F.O=C(O)C(F)(F)F.O=C(O)C(F)(F)F
11 | 0.5 | ≤ 0.03 | 4 | 0.125 | 0.25 | 0.25 | 0.25 | 0.125 | 2 | 0.06 | CCCCSSc1ccc(-c2ncc(C(=O)N[C@@H](CCN)C(=O)N(C)[C@@H]3C(=O)N[C@@H](C)C(=O)N[C@H](C(=O)NCC#N)Cc4ccc(OCCN)c(c4)-c4cc3ccc4OCCN)c(C)n2)cc1.O=C(O)C(F)(F)F.O=C(O)C(F)(F)F.O=C(O)C(F)(F)F.O=C(O)C(F)(F)F
12 | 4 | 0.25 | 16 | 0.5 | 0.5 | 1 | 2 | 1 | 16 | 0.5 | CSSc1ccc(-c2ncc(C(=O)N[C@@H](CCN)C(=O)N(C)[C@@H]3C(=O)N[C@@H](C)C(=O)N[C@H](C(=O)NCC#N)Cc4ccc(OCCN)c(c4)-c4cc3ccc4OCCN)c(C)n2)cc1.O=C(O)C(F)(F)F.O=C(O)C(F)(F)F.O=C(O)C(F)(F)F.O=C(O)C(F)(F)F
13 | 0.5 | ≤ 0.03 | 4 | 0.06 | 0.125 | 0.125 | 0.5 | 0.125 | 4 | 0.06 | Cc1nc(-c2ccc(CSSC(C)(C)C)cc2)nc(C)c1C(=O)N[C@@H](CCN)C(=O)N(C)[C@@H]1C(=O)N[C@@H](C)C(=O)N[C@H](C(=O)NCC#N)Cc2ccc(OCCN)c(c2)-c2cc1ccc2OCCN.O=C(O)C(F)(F)F.O=C(O)C(F)(F)F.O=C(O)C(F)(F)F.O=C(O)C(F)(F)F
14 | 64 | 0.5 | 64 | 1 | 0.25 | 1 | 16 | 0.5 | 64 | 4 | CSC(=O)CNC(=O)[C@@H]1Cc2ccc(OCCN)c(c2)-c2cc(ccc2OCCN)[C@H](N(C)C(=O)[C@H](CCN)NC(=O)c2cnc(-c3ccc(C(C)(C)C)cc3)nc2C)C(=O)N[C@@H](C)C(=O)N1.O=C(O)C(F)(F)F.O=C(O)C(F)(F)F.O=C(O)C(F)(F)F.O=C(O)C(F)(F)F
15 | 64 | 16 | > 64 | 16 | > 64 | > 64 | 8 | > 64 | > 64 | 16 | Cc1nc(-c2ccc(C(C)(C)C)cc2)ncc1CC(=O)N[C@@H](CCN)C(=O)N(C)[C@@H]1C(=O)N[C@@H](C)C(=O)N[C@H](C(=O)NCC#N)Cc2ccc(OCCN)c(c2)-c2cc1ccc2OCCN.O=C(O)C(F)(F)F.O=C(O)C(F)(F)F.O=C(O)C(F)(F)F.O=C(O)C(F)(F)F
16 | 64 | 1 | > 64 | 1 | 2 | 4 | 8 | 2 | > 64 | 2 | Cc1nc(C2CCC3(CC2)CC3)ncc1C(=O)N[C@@H](CCN)C(=O)N(C)[C@@H]1C(=O)N[C@@H](C)C(=O)N[C@H](C(=O)NCC#N)Cc2ccc(OCCN)c(c2)-c2cc1ccc2OCCN.O=C(O)C(F)(F)F.O=C(O)C(F)(F)F.O=C(O)C(F)(F)F.O=C(O)C(F)(F)F
17 | > 64 | 32 | > 64 | 64 | 64 | 64 | > 64 | 64 | > 64 | 64 | Cc1nc(-c2ccc(C(C)(C)C)cc2)ncc1C(=O)N[C@@H](CCN)C(=O)N(C)[C@@H]1C(=O)N[C@@H](C)C(=O)N[C@H](NC(=O)NC#N)Cc2ccc(OCCN)c(c2)-c2cc1ccc2OCCN.O=C(O)C(F)(F)F.O=C(O)C(F)(F)F.O=C(O)C(F)(F)F.O=C(O)C(F)(F)F
18 | 0.5 | ≤ 0.03 | 4 | ≤ 0.03 | 0.25 | 0.25 | 0.5 | 0.125 | 4 | ≤ 0.03 | Cc1nc(-c2ccc([C@@H](C)SSC(C)(C)C)cc2)ncc1C(=O)N[C@@H](CCN)C(=O)N(C)[C@@H]1C(=O)N[C@@H](C)C(=O)N[C@H](C(=O)NCC#N)Cc2ccc(OCCN)c(c2)-c2cc1ccc2OCCN.O=C(O)C(F)(F)F.O=C(O)C(F)(F)F.O=C(O)C(F)(F)F.O=C(O)C(F)(F)F
19 | 1 | ≤ 0.03 | 8 | 0.125 | 0.25 | 0.5 | 1 | 0.125 | 8 | 0.25 | C[C@@H]1NC(=O)[C@@H](N(C)C(=O)[C@H](CCN)NC(=O)c2cnc(-c3ccc(CSSC(C)(C)C)cc3)cc2Cl)c2ccc(OCCN)c(c2)-c2cc(ccc2OCCN)C[C@@H](C(=O)NCC#N)NC1=O.O=C(O)C(F)(F)F.O=C(O)C(F)(F)F.O=C(O)C(F)(F)F.O=C(O)C(F)(F)F
